The numbers were not newly measured in PubChem BioAssay AID1259410 (Chemical Carcinogenesis Research Information System (CCRIS), 2018), which cites them from elsewhere.

This data set concerns rodent tumor promotion studies, tumor incidence. Description: CCRIS tumor promotion studies. Conditions: Route [Promoter]: DERMAL, Species: MOUSE.

Regarding `CCCCCCCCCCCCCC(=O)O[C@@H]1[C@@H](C)[C@@]2(O)[C@@H](C=C(CO)C[C@]3(O)C(=O)C(C)=C[C@@H]23)[C@@H]2C(C)(C)[C@]12OC(C)=O`, the outcome runs as follows: (Carcinogen: BENZO[B]FLUORANTHENE, 205-99-2, Doses [Carcinogen]: 0, 0.04, 0.12, 0.4 UMOL (TOTAL DOSE) APPLIED IN SUBDOSES 1/2 D FOR 5 WK, Doses [Carcinogen]: 0, 0.04, 0.12, 0.4 UMOL (TOTAL DOSE) APPLIED IN SUBDOSES 1/2 D FOR 5 WK, Doses [Promoter]: 2.5 UG IN 100 µL ACETONE 3/WK FOR 20 WK BEGINNING 10 D POST LAST CARCINOGEN DOSE (STUDY DURATION: 26 WK), Route [Carcinogen]: DERMAL, Strain/Sex: CD-1/FEMALE) “skin: tumor”; (Carcinogen: BENZO[B]FLUORANTHENE, 205-99-2, Doses [Carcinogen]: 40, 120, 400 NMOL (TOTAL DOSE) APPLIED 1/2 D FOR 10 SUBDOSES, Doses [Carcinogen]: 40, 120, 400 NMOL (TOTAL DOSE) APPLIED 1/2 D FOR 10 SUBDOSES, Doses [Promoter]: 0, 2.5 UG IN 100 µL ACETONE 3/WK FOR 20 WK BEGINNING 10 D POST CARCINOGEN TREATMENT (STUDY DURATION: 22 WK), Route [Carcinogen]: DERMAL, Strain/Sex: CRL:CD-1/FEMALE) “skin: tumor”; (Carcinogen: BENZO[B]FLUORANTHRENE, 205-99-2, Doses [Carcinogen]: 40, 100 NMOL TOTAL DOSES GIVEN IN 10 SUBDOSES 1/2 D IN 0.1 ML ACETONE, Doses [Promoter]: 2.5 UG IN 0.1 ML ACETONE 3/WK FOR 30 WK BEGINNING 10 D POST CARCINOGEN TREATMENT (STUDY DURATION: 34 WK), Route [Carcinogen]: DERMAL, Strain/Sex: CD-1/FEMALE) “skin: tumors”; (Carcinogen: BENZO[J]FLUORANTHENE, 205-82-3, Doses [Carcinogen]: 0, 1, 3 UMOL (TOTAL DOSE) IN ACETONE SOLUTION 1/2 D FOR 10 DOSES, Doses [Carcinogen]: 0, 1, 3 UMOL (TOTAL DOSE) IN ACETONE SOLUTION 1/2 D FOR 10 DOSES, Doses [Promoter]: 2.5 UG IN ACETONE 3/WK BEGINNING 10 D POST LAST CARCINOGEN DOSE AND CONTINUING FOR 20 WK (STUDY DURATION: 23 WK), Route [Carcinogen]: DERMAL, Strain/Sex: CD-1/FEMALE) “skin: tumors”; (Carcinogen: BENZO[J]FLUORANTHENE, 205-82-3, Doses [Carcinogen]: 0.3, 1, 2 UMOL (TOTAL DOSE) ADMINISTERED IN SUBDOSES 1/2 D, Doses [Carcinogen]: 0.3, 1, 2 UMOL (TOTAL DOSE) ADMINISTERED IN SUBDOSES 1/2 D, Doses [Promoter]: 2.5 UG IN 100 µL ACETONE 3/WK FOR 20 WK BEGINNING 10 D POST LAST CARCINOGEN DOSE (STUDY DURATION: 27 WK), Route [Carcinogen]: DERMAL, Strain/Sex: CD-1/FEMALE) “skin: tumor”; (Carcinogen: BENZO[K]FLUORANTHENE, 207-08-9, Doses [Carcinogen]: 4 UMOL (TOTAL DOSE) ADMINISTERED IN 10 SUBDOSES 1/2 D, Doses [Promoter]: 2.5 UG IN 0.1 ML ACETONE 3/WK FOR 30 WK BEGINNING 10 D POST CARCINOGEN TREATMENT (STUDY DURATION: 33 WK), Route [Carcinogen]: DERMAL, Strain/Sex: CRL:CD-1/FEMALE) “skin: tumor”. The outcome (Carcinogen: CAPTAN, 133-06-2, Doses [Carcinogen]: 450 MG/KG BW IN 200 µL DMSO 3/WK FOR 3 WK, Doses [Promoter]: 0, 5 UG IN 100 µL ACETONE 3/WK FOR 51 WK BEGINNING 1 WK POST CARCINOGEN TREATMENT (STUDY DURATION: 54 WK), Route [Carcinogen]: DERMAL, Strain/Sex: SWISS/FEMALE) was “skin: tumor”; the outcome (Carcinogen: CARBARYL, 63-25-2, Doses [Carcinogen]: 100 MG/KG IN 100 µL ACETONE 3/WK FOR 3 WK, Doses [Promoter]: 0, 5 UG IN 100 µL ACETONE 3/WK FOR 51 WK BEGINNING 1 WK POST CARCINOGEN TREATMENT (STUDY DURATION: 52 WK), Route [Carcinogen]: DERMAL, Strain/Sex: SWISS/FEMALE) is reported as “skin: tumor”; the outcome (Carcinogen: CISPLATIN, 15663-27-1, Doses [Carcinogen]: 7.5 MG/KG IN 2.5% SALINE ONCE ON DAY 17 OF GESTATION, Doses [Promoter]: 0, 2 UG IN ACETONE 2/WK FOR 20 WK TO OFFSPRING OF MOTHERS ADMINISTERED CARCINOGEN (STUDY DURATION: 25 WK), Route [Carcinogen]: INTRAPERITONEAL, TRANSPLACENTAL, Strain/Sex: SENCAR/MALE, FEMALE) is listed as “skin: papilloma”; the outcome (Carcinogen: DIBENZO[A,L]PYRENE-8,9-DIHYDRODIOL, 130063-43-3, Doses [Carcinogen]: 100 NMOL IN 100 µL ACETONE ONCE, Doses [Promoter]: 3.24 NMOL/100 µL ACETONE 2/WK BEGINNING 2 WK POST CARCINOGEN DOSE AND CONTINUING FOR 24 WK (STUDY DURATION: 27 WK), Route [Carcinogen]: DERMAL, Strain/Sex: SENCAR/FEMALE) is given as “skin: tumor”; the outcome (Carcinogen: DIBENZO[A,L]PYRENE-11,12-DIHYDRODIOL, 88191-01-9, Doses [Carcinogen]: 1 NMOL IN 100 µL ACETONE, Doses [Promoter]: 2.16 NMOL IN 100 µL ACETONE 2/WK FOR 27 WK BEGINNING 1 WK POST CARCINOGEN DOSE (STUDY DURATION: 28 WK), Route [Carcinogen]: DERMAL, Strain/Sex: SENCAR/FEMALE) is recorded as “skin: tumor”; the outcome (Carcinogen: DIBENZO[A,L]PYRENE-11,12-DIHYDRODIOL, 88191-01-9, Doses [Carcinogen]: 4, 20, 100 NMOL IN 100 µL ACETONE ONCE, Doses [Carcinogen]: 4, 20, 100 NMOL IN 100 µL ACETONE ONCE, Doses [Promoter]: 3.24 NMOL/100 µL ACETONE 2/WK BEGINNING 2 WK POST CARCINOGEN DOSE AND CONTINUING FOR 24 WK (STUDY DURATION: 27 WK), Route [Carcinogen]: DERMAL, Strain/Sex: SENCAR/FEMALE) is “skin: tumor”. For the same compound, the outcome (Carcinogen: DIBENZO[A,L]PYRENE-11,12-DIHYDRODIOL, 155254-86-7, Doses [Carcinogen]: 1.33, 4, 12 NMOL IN 100 ML ACETONE ONCE, Doses [Carcinogen]: 1.33, 4, 12 NMOL IN 100 ML ACETONE ONCE, Doses [Promoter]: 1.62 NMOL IN 100 ML ACETONE 2/WK FOR 28 WK BEGINNING 1 WK POST CARCINOGEN DOSE (STUDY DURATION: 30 WK), Route [Carcinogen]: DERMAL, Strain/Sex: SENCAR/FEMALE) was “skin: tumor”.
